Measured values published in US11667632B2, “2-(1H-indazol-3-yl)-3H-imidazo[4,5-C]pyridines and their anti-inflammatory uses thereof” (BioSplice Therapeutics, Inc., priority 2015, dated 2023).

Assays:
[1] = Persistence of radiolabeled Compound 10 in rabbit knee joints; type: in vivo; details: rabbits; two single IA injections in two knees at 4 μg/knee; after 1 hour up to 168 hours
[2] = Stability and radiochemical purity of the [3H]-Compound 10 formulation incubated at 37° C.; type: physicochemical
Procedure: The stability and radiochemical purity (RCP) of the radiolabeled [^3H]-Compound 10 was established in a concurrent experiment where a formulation of radiolabeled [3^H]-Compound 10 was incubated at 37° C. and radiochemical purity (RCP) of aliquots were analyzed over time and determined to be ˜ 95.5% (Days 0, 7, 14 and 30), 94.5% (Day 60), 93% (Day 90), and 83% (Day 180).

IL-6 = test: Inhibition of IL-6 in LPS-stimulated primary PBMCs (ELISA, MSD U-plex); type: cell-based; details: human PBMCs, LPS (500 ng/mL), Compound 10 (150 nM), 24 hrs; MSD platform; FIG. 15
Procedure: (§1) Primary peripheral blood mononuclear cells (PBMCs) freshly isolated from healthy human donors were obtained from AllCells Inc. and utilized for assays immediately. Compound 10 was dissolved in DMSO as a 10 mM stock and used to prepare compound source plates. A serial dilution (8-point dose-response) and compound transfer was performed using the ECHO 550 (Labcyte, Sunnyvale, Calif.) into 96-well clear bottom assay plates (Greiner Bio-One) with appropriate DMSO backfill for a final DMSO concentration of 0.05%. PBMCs were plated at 2×10e^5 cells/well in Roswell Park Memorial Institute (RPMI) 1640 Medium (Catalog #21870-100, Buffalo, N.Y.) with 1% L-glutamine, 1% HEPES, 1% Sodium Pyruvate, 2% Sodium Bicarbonate supplemented with 100 units/mL penicillin, 50 μg/mL streptomycin and 1% fetal bovine serum (Catalog #16140089, Life Technologies, Carlsbad, Calif.). […]
(§2) Supernatants were diluted appropriately for ELISA. […] Following several washes to remove unbound avidin-HRP, the TMB substrate was added and the plates were read on the Cytation 3 plate reader (Biotek Inc., Winooski, Vt.) at an absorbance of 450 nm with correction at 570 nm. […] Inhibition profile and EC50 was calculated using Prism 5 (GraphPad Software Inc, La Jolla, Calif., USA). […] Levels of cytokines were calculated using software form Meso Scale Discovery.

IL-2 = test: Inhibition of IL-2 in LPS-stimulated primary PBMCs (MSD U-plex); type: cell-based; details: human PBMCs, LPS (500 ng/mL), Compound 10 (150 nM), 24 hrs; MSD platform; FIG. 15
Procedure: as §1, §2

[3] = Persistence and half-life of radiolabeled Compound 10 in rat knee joints; type: in vivo; details: SD rats
From the text: […] These same animals were used for the QWBA experiments (above).
On Day 180, only about ˜6.6% of administered dose was detected.

IL-8 = test: Inhibition of IL-8 in LPS-stimulated primary PBMCs (MSD U-plex); type: cell-based; details: human PBMCs, LPS (500 ng/mL), Compound 10 (150 nM), 24 hrs; MSD platform; FIG. 15
Procedure: as §1, §2

Interleukin 6 (IL-6) = test: Inhibition of IL-6 secretion in IL-1β-stimulated synovial fibroblasts (SW982), ELISA; type: cell-based; details: human synovial fibroblasts stimulated with IL-1β, treated 24 hrs, FIG. 14A
Procedure: Synovial fibroblasts (SW982 cells; ATCC) were cultured in Leibovitz's L-15 Medium (ATCC) with 10% FBS at 37° C. and 0% CO2. 24 hours before the start of the assay, media was changed to Leibovitz's L-15 Medium with […]. Compound 10 was dissolved in DMSO as a 10 mM stock and used to prepare compound source plates. A serial dilution (8-point dose-response) and compound transfer was performed using the ECHO 550 (Labcyte, Sunnyvale, Calif.) into 96-well clear bottom assay plates (Greiner Bio-One) with appropriate DMSO backfill for a final DMSO concentration of 0.05%. […] Plates were spun in a centrifuge for 1 minute at 10,000 rpm and supernatants were collected for ELISA.
Supernatants were diluted 1:1 for the TNFα assay and 1:4 for the IL6 assay using the assay medium. ELISA was performed using Human TNF-α ELISA MAX™ Deluxe (Catalog #430204, Biolegend, San Diego, Calif.) and Human IL-6 ELISA MAX™ Deluxe (Catalog #430504, Biolegend, San Diego, Calif.) kits. […] Following several washes to remove unbound avidin-HRP, the TMB substrate was added and the plates were read on the Cytation 3 plate reader (Biotek Inc., Winooski, Vt.) at an absorbance of 450 nm with correction at 570 nm. […] Inhibition profile and EC50 was calculated using Prism 5 (GraphPad Software Inc, La Jolla, Calif., USA).

[4] = time points Days 14-90 only, excluding Day 180

administered radioactivity recovered in the knee [1]: 75% | radiochemical purity (RCP) of formulation over time ([2]; Day 60): 94.5% | radiochemical purity (RCP) of formulation over time ([2]; Day 90): 93% | radiochemical purity (RCP) of formulation over time ([2]; Day 180): 83% | radiochemical purity (RCP) of formulation over time ([2]; Days 0, 7, 14 and 30): ~95.5% | mean % of administered dose per knee ([3]; 1 μg/knee IA, Day 14): 64% | mean % of administered dose per knee ([3]; 1 μg/knee IA, Day 30): 54% | mean % of administered dose per knee ([3]; 1 μg/knee IA, Day 60): 42% | mean % of administered dose per knee ([3]; 1 μg/knee IA, Day 90): 38% | % of administered dose detected in knee joint ([3]; 1 μg/knee IA, Day 180): ~6.6% | detection in the knee joint space (radiographic images) ([3]; Day 180): still detectable | elimination rate constant, Ke ([3]; all time points, Days 14-180): 0.01342 | half-life (T1/2) in the knee joint ([3]; all time points, Days 14-180): 51.64 days | elimination rate constant, Ke [3, 4]: 0.00687 | half-life (T1/2) in the knee joint [3, 4]: 100.9 days | administered radioactivity recovered in each knee joint ([3]; two IA injections at 1 μg/knee, 1 h post-IA injection up to 168 h): 60-85%
Structure (SMILES): CC(C)CC(=O)Nc1cncc(-c2ccc3[nH]nc(-c4nc5c(-c6cccc(F)c6)cncc5[nH]4)c3c2)c1 [Compound 10]
Inhibition of IL-6 (IL-6): Inhibition | Inhibition of IL-2 (IL-2): Inhibition | Inhibition of IL-8 (IL-8): Inhibition | inhibition of IL-6 secretion (Interleukin 6 (IL-6)): inhibition
